Results: US20040259853A1, “Methods for preventing acute clinical vascular events in a subject” (The Trustees of Columbia University, priority 2000, published 2004)

Experiments:
[1] = tested on: ABCA1-mediated cholesterol efflux; test: 3H-cholesterol efflux to apoA-I from free cholesterol-loaded macrophages; format: cell-based, mouse; conditions: 70 nM; macrophages incubated for a prolonged period with acetyl-LDL without ACAT inhibitor (FIG. 12C)
[2] = tested on: cholesterol trafficking to the plasma membrane; test: Cholesterol oxidase assay (plasma membrane cholesterol); format: cell-based, mouse
Protocol: Shown is the mass (in μg/mg cell protein) of cholesterol (Chol, open bars), which is the cholesterol oxidase-inaccessible pool of intracellular cholesterol, and of cholestenone (CN, striped bars), which is the cholesterol oxidase-accessible pool of plasma membrane cholesterol.
Macrophages were fixed with 1% glutaraldehyde for 10 min and then incubated for 30 min at 37° C. with 2 U/ml Streptomyces cholesterol oxidase. Cellular lipids were extracted twice with 0.5 ml of hexane:isopropanol (3:2).
Cholesterol and.cholestenone mass in these extracts were determined by gas-liquid chromatography using β-sitosterol as an internal standard. The lipid-extracted cell monolayer was dissolved in 1 ml 1N NaOH and assayed for protein content using the method of Lowry et al. (50).

ABCA1 protein = test: ABCA1 immunoblot of total and cell-surface protein in cholesterol-loaded macrophages; format: cell-based, mouse
Protocol: Macrophages were pre-incubated for 14 h with 50 μg/ml acetyl-LDL in DMEM, 0.2% BSA, in the absence (CE) or presence (FC) of 58035. The cells were then incubated for 5 h with 100 μg/ml acetyl-LDL in DMEM, 0.2% BSA, in the absence or presence of 58035, respectively, with no further additions (Control) or in the presence of 10 μg/ml cycloheximide, 50 μM ALLN, or 50 μM lactacystin as indicated. Aliquots of cell lysates were then assayed for ABCA1 and β-actin protein by immunoblot analysis.
Macrophages were pre-incubated for 14 h with 50 μg/ml acetyl-LDL in DMEM, 0.2% BSA, in the absence (CE) or presence (FC) of 58035. […] Aliquots of total cell protein (top panel) or cell-surface protein (bottom panel) were then subjected to immunoblot analysis for ABCA1 and the standards β-actin or β1-integrin.
Macrophage monolayers in 35-mm dishes were washed with ice-cold PBS 3 times and then incubated with ice-cold PBS containing 0.5 mg/ml NHS—SS-biotin (Pierce) for 30 minutes at 4° C. After washing 5 times with ice-cold PBS containing 20 mM Tris-HCl, pH 8.0, the cells were scraped into PBS and pelleted by centrifugation. The pelleted macrophages were lysed in 50 μl RIPA buffer (0.5% sodium deoxycholate, 0.1% SDS, 1% Triton X-100, 20 mM Tris, 150 mM NaCl, and 5 mM EDTA, pH 8) containing 1 mM PMSF. […] of the lysate were subjected directly to 4-20% gradient SDS-polyacrylamide gel electrophoresis (SDS-PAGE) for determination of total ABCA1. The rest of the cell lysate was affinity-purified to isolate biotinylated proteins. Briefly, the cell lysates were diluted to 150 μl in RIPA buffer and incubated with 50 μl immobilized streptavidin agarose (Pierce), which was pre-washed three times with RIPA buffer at 0° C. for 2 h with gentle shaking. The agarose was pelleted by centrifugation using a microcentrifuge at 5,000 rpm for 2 min; the pellet was resuspended in 1 ml RIPA buffer, and the process was repeated 5 times. The agarose was resuspended 30 μl SDS-PAGE loading buffer containing 330 mM β-mercaptoethanol at 37^6C for 15 min and subjected to SDS-PAGE as above. ABCA1 and β-integrin were detected by Western blot using anti-ABCA1 and anti-β-integrin anti-sera. The blots were reprobed with anti-β-actin antibody, which detected no actin signal, thus verifying that no cytosolic protein was biotinylated by the procedure.
Peritoneal macrophages were lysed in RIPA buffer containing 1 mM PMSF. Nuclei were removed by centrifugation at 3000×g for 10 min at 4° C. […] For Western blot detection of ABCA1, anti-ABCA1 antiserum was used. Signals were detected using HRP-conjugated secondary anti-bodies (Bio-Rad) and ECL (Amersham Pharmacia Biotech). The membranes were reprobed with anti-β actin monoclonal antibody or anti-β1-integrin anti-serum for the proper internal controls. The relative intensities of the bands were determined by densitometry.

[3] = tested on: ABCA1-mediated cholesterol efflux; test: 3H-cholesterol efflux to apoA-I from free cholesterol-loaded macrophages; format: cell-based, mouse
Protocol: Peritoneal macrophages from C57 mice were incubated for 5 h with 100 μg/ml ^3H-cholesterol-labeled acetyl-LDL in DMEM, 0.2% BSA, in the presence of 10 μg/ml 58035.
Acetyl-LDL (800 μg) was incubated with 10 μCi ^3H-cholesterol for 30 min at 37° C., followed by addition of 8 ml of DMEM, 0.2% BSA. The macrophages were incubated with this medium for 5 h, washed 3 times with PBS, and then incubated with DMEM, 0.2% BSA for 15 min at 37° C. After washing with PBS, the macrophages were incubated with DMEM, 0.2% BSA, containing either 15 μg/ml apoAI or 20 μg/ml HDL2. At the indicated time points, 100 μl of media was removed and centrifuged for 5 min at 14,000 rpm to pellet cellular debris. The radioactivity in this fraction of media was quantitated by liquid scintillation counting. After the last time point, the remainder of the media was removed, and the cells were dissolved in 0.5 ml of 0.1 N NaOH containing 0.5% sodium dodecylsulfate (5 h at room temperature). A 100 μl-aliquot of the cell lysate was counted, and the percent efflux was calculated as (media cpm)[…](cell +media cpm)×100. Total protein in the cell lysate was determined using the Bio-Rad DC protein assay kit. Note that there was no statistical difference in cellular cpm or protein between cholesteryl ester- and free cholesterol-loaded macrophages.

[4] = tested on: mouse peritoneal macrophages; conditions: very low doses; reference 22; cited from earlier work
[5] = tested on: mouse peritoneal macrophages; test: Annexin V / propidium iodide cell death assay of macrophages
Description: Representative fluorescence images and quantitative cell death data from five fields of cells for each condition are shown, expressed as the percent of total cells that stained with annexin V or propidium iodide (mean±S.E.M.; n=5 fields of cells, where each field had ˜200 cells).
Representative fluorescence images and quantitative data are shown (mean±S.E.M.; n=5 fields of cells, where each field had ˜200 cells).
Representative fluorescence images are shown in FIG. 19A, and quantitative apoptosis data from five fields of cells for each condition are shown in FIG. 19B, expressed as the percent of total cells that stained with annexin V or propidium iodide (mean±S.E.M.; n=5 fields of cells, where each field had ˜200 cells).
Peritoneal macrophages from adult female C57BL/6 mice and all mutant mice used in this study were harvested three days after the intraperitoneal injection of 40/g of concanavalin A in 0.5 ml of PBS. The cells were incubated in Dulbecco's modified Eagle's medium (DMEM) supplemented with 10% fetal bovine serum (FBS) and 20% L-cell conditioned medium. The medium was replaced every 24 hours until the macrophages were confluent. On the day of the experiment, the cells were washed three times with warm PBS and incubated as indicated in the Description of Figures for FIGS. 15A-20E. Most importantly, FC-loading of wild type and mutant macrophages was effected by incubating the cells with 100 μg/ml acetyl-LDL in the presence of 10 μg/ml 58035, which inhibits ACAT-mediated cholesterol esterification (11). At the end of the incubation period, the macrophages were assayed for early-mid-stage apoptosis (i.e., phosphatidylserine externalization) by staining with Alexa-488-labeled annexin V and for late-stage apoptosis (i.e., increased membrane permeability) by staining with propidium iodide (PI), as previously described (11). Cells were immediately viewed with an Olympus IX-70 inverted fluorescence microscope, and 3-6 representative fields (˜1000 cells) for each condition were counted for the number of annexin-positive, PI-positive, and total cells.

[6] = tested on: unfolded protein response (UPR); test: Immunoblot analysis of UPR markers (CHOP, PERK, IRE1α, XBP-1) in macrophages
Protocol: For detection of PERK, nuclei-free cell extracts were immunoprecipitated with anti-PERK antiserum and then immunoblotted, while for detection of ATF-4 and CHOP, immunoblots were performed on nuclear extracts. Lamin B, a nuclear protein, was used as the loading control.
Immunoprecipitation and immunoblot detection for IRE1α and PERK were conducted as described by Harding et al. (35). Immunoblot analyses of XBP-1, ATF4, and CHOP were carried out as described previously (36,38) with minor modifications. Briefly, cells were lysed in RIPA buffer to prepare whole-cell lysates or to prepare nuclei by centrifugation. The whole-cell lysates or nuclei were resuspended in 2×SDS-PAGE loading buffer and incubated at 95° C. for 10 min. Whole cell (100 μg) or nuclear lysates (20 μg) were electrophoresed on 4-20% gradient SDS-PAGE gels and electrotransferred to 0.22-μm nitrocellulose membrane using a Bio-Rad mini-transfer tank. After incubation with primary antibodies, the protein bands were detected with HRP-conjugated secondary antibodies (Bio-Rad) and ECL (Amersham Pharmacia Biotech). The membranes were reprobed with an anti-β-actin monoclonal antibody or an anti-lamin B serum to control for differences in loading.

ACAT enzyme = conditions: reference 24; cited from earlier work
[7] = tested on: unfolded protein response (UPR); conditions: very low doses; reference 22; cited from earlier work

With CCN(CC)CCO[C@H]1CC[C@@]2(C)C(=CC[C@@H]3[C@@H]2CC[C@]2(C)C(=O)CC[C@@H]32)C1 [U18666A, 3-β-[2-(diethylamino)ethoxy]androst-5-en-17-one] the “increase of cholesterol efflux to apoA-I” value [1] was “about 30%”, the “reduction of cholesterol trafficking to the plasma membrane” value ([2]; 70 nM (data not shown)) was “about 10%” and the “accrual of cholesterol in the plasma membrane” value ([2]; low dose (70 nM), cholesterol oxidase accessibility and cyclodextrin extractability (FIG. 15B)) was “no effect”. The “ABCA1 protein loss in free cholesterol-loaded cells (total protein)” value (ABCA1 protein; 70 nM (FIG. 13, top panel)) was “protected from the ABCA1 protein loss”, the “decrease of cell-surface ABCA1 protein” value (ABCA1 protein; 70 nM, FC-loaded cells (FIG. 13, bottom panel), 60% in untreated cells) was “about 15%” and the “ABCA1 protein expression in free cholesterol-loaded cells” value (ABCA1 protein; low concentrations) was “markedly enhance”. For the same compound, the “concentrations at which efflux was gradually inhibited” value ([3]; FC-loaded macrophages) was “greater than 100 nM”, the “induction of cholesterol efflux to ApoA-1” value ([3]; FC-loaded macrophages (FIGS. 11A, 11B)) was “marked ability to induce cholesterol efflux to ApoA-1” and the “concentration of peak cholesterol efflux to ApoA-1” value ([3]; FC-loaded macrophages, 6 h apoA-I (FIG. 11A)) was 70 nM. The “restoration of ABCA1-dependent efflux” value ([3]; optimal low doses, FC-loaded macrophages (FIG. 12A)) was “restored ABCA1-dependent efflux”, the “block of apoptosis in FC-loaded cultured macrophages” value [4] was “almost completely” and the staurosporine-induced macrophage apoptosis ([5]; data not shown) was “failed to protect”. For the same compound, the “FC-induced death of Perk−/− macrophages” value ([5]; low dose (70 nM), 10 h (FIGS. 19A, 19B)) was “markedly protected”, the FC-induced macrophage death ([5]; low dose (70 nM), acetyl-LDL + 58035, 8 h (FIG. 15C)) was “protected macrophages from the lethal effect of cholesterol loading” and the “IRE1α activation and XBP-1 expression in FC-loaded macrophages” value ([6]; low dose (70 nM) (FIG. 16D, lane 5)) was “markedly attenuated both events”. For the same compound, the “CHOP induction in FC-loaded macrophages” value ([6]; low dose (70 nM), 5 h (FIG. 16A, lane 5)) was “attenuated CHOP induction”, the “PERK activation in FC-loaded macrophages” value ([6]; low dose (70 nM), 5 h (FIG. 16B, lane 5)) was “blocked PERK activation” and the “direct inhibitory effect on the ACAT enzyme” value (ACAT enzyme) was “no direct inhibitory effect”. For the same compound, the “block of UPR activation in FC-loaded cultured macrophages” value [7] was “almost completely”.
